Data taken from the NIST ThermoML archive (doi:10.1016/j.fluid.2015.10.026).

Conditions: Liquid, Brillouin light scattering

CCC(C)(C)OC [2-methoxy-2-methylbutane]
Conditions | speed of sound [m/s]
293.15 K, 0 kPa | 1133.3
293.15 K, 1000 kPa | 1139.7
293.15 K, 2500 kPa | 1149
293.15 K, 4000 kPa | 1158.3
293.15 K, 5500 kPa | 1167.7
293.15 K, 7000 kPa | 1177.2
293.15 K, 8500 kPa | 1186.7
293.15 K, 10000 kPa | 1196.4
303.15 K, 10 kPa | 1089.4
303.15 K, 1000 kPa | 1099.1
303.15 K, 2500 kPa | 1109.3
303.15 K, 4000 kPa | 1119.3
303.15 K, 5500 kPa | 1129.3
303.15 K, 7000 kPa | 1139.3
303.15 K, 8500 kPa | 1149.2
303.15 K, 10000 kPa | 1159
313.15 K, 10 kPa | 1046.4
313.15 K, 1000 kPa | 1058.3
313.15 K, 2500 kPa | 1069.4
313.15 K, 4000 kPa | 1080.3
313.15 K, 5500 kPa | 1091
313.15 K, 7000 kPa | 1101.4
313.15 K, 8500 kPa | 1111.7
313.15 K, 10000 kPa | 1121.8
323.15 K, 20 kPa | 1004.2
323.15 K, 1000 kPa | 1017.4
323.15 K, 2500 kPa | 1029.4
323.15 K, 4000 kPa | 1041.1
323.15 K, 5500 kPa | 1052.5
323.15 K, 7000 kPa | 1063.5
323.15 K, 8500 kPa | 1074.2
323.15 K, 10000 kPa | 1084.6
333.15 K, 20 kPa | 962.62
333.15 K, 1000 kPa | 976.26
333.15 K, 2500 kPa | 989.25
333.15 K, 4000 kPa | 1001.8
333.15 K, 5500 kPa | 1013.9
333.15 K, 7000 kPa | 1025.6
333.15 K, 8500 kPa | 1036.8
333.15 K, 10000 kPa | 1047.6
343.15 K, 40 kPa | 921.56
343.15 K, 1000 kPa | 934.97
343.15 K, 2500 kPa | 948.94
343.15 K, 4000 kPa | 962.37
343.15 K, 5500 kPa | 975.26
343.15 K, 7000 kPa | 987.61
343.15 K, 8500 kPa | 999.41
343.15 K, 10000 kPa | 1010.7
353.15 K, 60 kPa | 880.86
353.15 K, 1000 kPa | 893.5
353.15 K, 2500 kPa | 908.48
353.15 K, 4000 kPa | 922.83
353.15 K, 5500 kPa | 936.54
353.15 K, 7000 kPa | 949.61
353.15 K, 8500 kPa | 962.05
353.15 K, 10000 kPa | 973.86
363.15 K, 90 kPa | 840.4
363.15 K, 1000 kPa | 851.87
363.15 K, 2500 kPa | 867.87
363.15 K, 4000 kPa | 883.16
363.15 K, 5500 kPa | 897.74
363.15 K, 7000 kPa | 911.59
363.15 K, 8500 kPa | 924.74
363.15 K, 10000 kPa | 937.16
373.15 K, 120 kPa | 800.06
373.15 K, 1000 kPa | 810.06
373.15 K, 2500 kPa | 827.11
373.15 K, 4000 kPa | 843.38
373.15 K, 5500 kPa | 858.86
373.15 K, 7000 kPa | 873.55
373.15 K, 8500 kPa | 887.46
373.15 K, 10000 kPa | 900.58
383.15 K, 160 kPa | 759.72
383.15 K, 1000 kPa | 768.09
383.15 K, 2500 kPa | 786.2
383.15 K, 4000 kPa | 803.47
383.15 K, 5500 kPa | 819.89
383.15 K, 7000 kPa | 835.47
383.15 K, 8500 kPa | 850.21
383.15 K, 10000 kPa | 864.1
393.15 K, 200 kPa | 719.27
393.15 K, 1000 kPa | 725.95
393.15 K, 2500 kPa | 745.14
393.15 K, 4000 kPa | 763.44
393.15 K, 5500 kPa | 780.85
393.15 K, 7000 kPa | 797.37
393.15 K, 8500 kPa | 813
393.15 K, 10000 kPa | 827.74
403.15 K, 240 kPa | 678.61
403.15 K, 1000 kPa | 683.64
403.15 K, 2500 kPa | 703.93
403.15 K, 4000 kPa | 723.29
403.15 K, 5500 kPa | 741.73
403.15 K, 7000 kPa | 759.25
403.15 K, 8500 kPa | 775.83
403.15 K, 10000 kPa | 791.49
413.15 K, 300 kPa | 637.63
413.15 K, 1000 kPa | 641.15
413.15 K, 2500 kPa | 662.56
413.15 K, 4000 kPa | 683.02
413.15 K, 5500 kPa | 702.53
413.15 K, 7000 kPa | 721.09
413.15 K, 8500 kPa | 738.7
413.15 K, 10000 kPa | 755.35
423.15 K, 360 kPa | 596.25
423.15 K, 1000 kPa | 598.5
423.15 K, 2500 kPa | 621.05
423.15 K, 4000 kPa | 642.63
423.15 K, 5500 kPa | 663.25
423.15 K, 7000 kPa | 682.91
423.15 K, 8500 kPa | 701.6
423.15 K, 10000 kPa | 719.33
433.15 K, 440 kPa | 554.37
433.15 K, 1000 kPa | 555.68
433.15 K, 2500 kPa | 579.38
433.15 K, 4000 kPa | 602.12
433.15 K, 5500 kPa | 623.89
433.15 K, 7000 kPa | 644.7
433.15 K, 8500 kPa | 664.54
433.15 K, 10000 kPa | 683.41
443.15 K, 540 kPa | 511.92
